In PubChem BioAssay (NCI):
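In this assay, cells in 96-well plates receive the compound at five concentrations for 48 hours. Endpoints are linearly interpolated between the surrounding concentrations. Here, GI50 denotes the concentration required for 50% inhibition of growth. Definition used: TGI = concentration required for complete inhibition of growth.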

How the values were obtained:
Assay in all cases: growth of human tumour cells (NCI), 48 h
MOLT-4 leukemia = test system: MOLT-4 leukemia
NCI-H23 lung = test system: NCI-H23 lung
NCI-H522 lung = test system: NCI-H522 lung
DU-145 prostate = test system: DU-145 prostate
OVCAR-4 ovarian = test system: OVCAR-4 ovarian
CAKI-1 renal = test system: CAKI-1 renal
SK-OV-3 ovarian = test system: SK-OV-3 ovarian
U251 CNS = test system: U251 CNS
ACHN renal = test system: ACHN renal
A498 renal = test system: A498 renal

| Structure (SMILES) | GI50 (MOLT-4 leukemia) [µM] | TGI (MOLT-4 leukemia) [µM] | GI50 (NCI-H23 lung) [µM] | TGI (NCI-H23 lung) [µM] | GI50 (NCI-H522 lung) [µM] | TGI (NCI-H522 lung) [µM] | GI50 (DU-145 prostate) [µM] | TGI (DU-145 prostate) [µM] | GI50 (OVCAR-4 ovarian) [µM] | TGI (OVCAR-4 ovarian) [µM] | GI50 (CAKI-1 renal) [µM] | TGI (CAKI-1 renal) [µM] | GI50 (SK-OV-3 ovarian) [µM] | TGI (SK-OV-3 ovarian) [µM] | GI50 (U251 CNS) [µM] | TGI (U251 CNS) [µM] | GI50 (ACHN renal) [µM] | TGI (ACHN renal) [µM] | GI50 (A498 renal) [µM] | TGI (A498 renal) [µM] |
| --- | --- | --- | --- | --- | --- | --- | --- | --- | --- | --- | --- | --- | --- | --- | --- | --- | --- | --- | --- | --- |
| CCCCCCNc1nc(NCCCCCC)c2[nH]c(NCCCCCC)nc2n1 | 3.12 | 35.4 | 8.77 | 23.3 | 2.14 | 7.68 | 12.8 | 25.4 | 6.97 | 21.2 | 16.2 | 50.9 | 24.8 | > 74.1 | 2.18 | 8.98 | 15 | 37.8 | 1.2 | 10.5 |
| COc1ccc2c(c1)[C@@]13CCN4CC5=CCO[C@H]6CC(=O)N2[C@H]1[C@H]6[C@H]5C[C@H]43 | – | > 100 | – | > 100 | – | > 100 | – | > 100 | – | > 100 | – | > 100 | – | > 100 | – | > 100 | – | > 100 | – | > 100 |
| NCCN1CCN(c2nccc(-c3ccc4ccccc4c3)n2)CC1 | 2.05 | 4.44 | 4.17 | 16.5 | 1.97 | 3.84 | 1.85 | 3.42 | 2.41 | 7.5 | 1.55 | 2.95 | 2.1 | 5.34 | 1.85 | 3.52 | 1.71 | 3.29 | 1.59 | 3.3 |
| Cc1noc(C)c1-c1ccc2[nH]c(=O)n3c2c1OC[C@@H]3c1ccccn1 | 11.5 | > 100 | 9.44 | > 100 | 2.64 | > 100 | > 64.3 | > 100 | 1.03 | > 100 | 0.151 | > 100 | 0.634 | > 100 | 30.9 | > 100 | 1.5 | > 100 | – | 6.25 |
| COc1ccc2c(-c3cc4ccccc4o3)cc(=O)oc2c1 | – | > 100 | – | > 100 | – | > 91.8 | – | > 100 | – | 71.8 | – | > 87.4 | – | 52.1 | – | > 96 | – | > 100 | – | > 92 |
| Cc1c(-c2nc(N)nc(C3CC3)c2C)nc(N)nc1C1CC1 | – | > 100 | – | > 100 | – | > 100 | – | > 100 | – | > 100 | – | > 100 | – | > 100 | – | > 100 | – | > 100 | – | > 100 |
| COc1ccc2c(c1)C=CC(C#N)N2C(=O)c1ccccc1 (centres undefined) | < 0.01 | > 100 | < 0.01 | > 100 | < 0.01 | 0.188 | < 0.01 | > 100 | 0.0283 | > 100 | < 0.01 | > 100 | < 0.01 | > 100 | < 0.01 | > 100 | 0.0411 | > 100 | < 0.01 | 0.0825 |
| COc1ccc(C2C(C#N)=C(N)OC3=C2CCCc2ccc(F)cc23)cc1OC (centres undefined) | > 38.2 | > 66.9 | 22.8 | > 65.9 | 17.8 | 37.6 | 19.1 | 36.9 | 23 | 68 | 34.2 | 65.3 | 25.4 | 57.7 | 17 | 35.9 | 19.9 | 41.7 | 4.22 | 21.9 |
| C=CCOc1c(Br)cc(Br)cc1Br | 14.7 | 99.1 | 10.1 | > 100 | 4.68 | 30.7 | 58.5 | > 100 | 13.6 | 39.9 | 13 | 83.6 | 55.5 | > 100 | 8.28 | > 100 | 16.5 | > 100 | 8.49 | > 100 |
| O=C(N/N=C/c1ccc(Cl)cc1Cl)c1ccccc1Nc1cccc(C(F)(F)F)c1 | 4.22 | 40 | 5.93 | 32.8 | 3.34 | 20.7 | 4.08 | 38.7 | 2.94 | 12.4 | 3.45 | 14.4 | 12.5 | 39.2 | 3.07 | 9.64 | 3.77 | 16.5 | 14.9 | 52.4 |
| Cc1sc(C)c(-c2ccc(CO)o2)c1-c1ccc(CO)o1 | 48.9 | > 100 | > 100 | > 100 | 41.9 | > 100 | > 100 | > 100 | 0.299 | > 100 | 1.16 | > 100 | 16.5 | > 100 | 14.5 | > 100 | 64.2 | > 100 | 0.0205 | 0.0973 |
| N#Cc1c(-c2ccccc2)nc2c(c(-c3ccccc3)nn2-c2ccccc2)c1-c1ccc(O)cc1 | 2.48 | 7.86 | 1.78 | 3.84 | 2.32 | 6.03 | 2.62 | 8.53 | 1.95 | 4.66 | 2.48 | 6.7 | 2.87 | 8.48 | 1.63 | 3.97 | 2.24 | 5.89 | 1.66 | 3.07 |
| CCN(Cc1c(F)cccc1F)c1ccc(CO)c(Cl)c1 | 22.1 | 71.7 | 15 | 57.5 | 15.1 | 38.8 | 12.3 | 47 | 0.0429 | 0.319 | 0.167 | 1.77 | 1.65 | 9.91 | 0.195 | 32.5 | 20.8 | > 74.5 | 0.0173 | 0.069 |
